Reference: patent US20260130395A1, “Water Dispersible Botanical Compositions” (Aquila Black Limited, priority 2021, published 2026)

Legend:
[1] = Stability of cannabinoid entourage and Vitamin E components of the powder concentrate by LCMSMS; type: physicochemical; settings: powder stored at 21-25° C.
Description: At each time period, 0.05 g of powder was dissolved in 10 ml-15 of ethanol, diluted to fall within the analytical range, and injected into the LCMSMS for analysis.

[2] = Stability of cannabinoid compounds and Vitamin E components in Beverage 1 (AB White) by LCMSMS; type: physicochemical

SMILES: Cc1c(C)c2c(c(C)c1O)CC[C@@](C)(CCC[C@H](C)CCC[C@H](C)CCCC(C)C)O2 [α-Tocopherol]
- Stability of Vitamin Es in Powder Concentrate ([1]; 0 days): 4.85 mg/g powder
- Stability of Vitamin Es in Powder Concentrate ([1]; 1 days): 4.89 mg/g powder
- Stability of Vitamin Es in Powder Concentrate ([1]; 2 days): 4.79 mg/g powder
- Stability of Vitamin Es in Powder Concentrate ([1]; 3 days): 4.69 mg/g powder
- Stability of Vitamin Es in Powder Concentrate ([1]; 5 days): 4.99 mg/g powder
- Stability of Vitamin Es in Powder Concentrate ([1]; 8 days): 4.69 mg/g powder
- Stability of Vitamin Es in Powder Concentrate ([1]; 9 days): 4.75 mg/g powder
- Stability of Vitamin Es in Powder Concentrate ([1]; 10 days): 4.77 mg/g powder
- Stability of Vitamin Es in Powder Concentrate ([1]; 11 days): 5.04 mg/g powder
- Stability of Vitamin Es in Powder Concentrate ([1]; 12 days): 5.01 mg/g powder
- Stability of Vitamin Es in Powder Concentrate ([1]; 15 days): 5.07 mg/g powder
- Stability of Vitamin Es in Powder Concentrate ([1]; 16 days): 4.96 mg/g powder
- Stability of Vitamin Es in Powder Concentrate ([1]; 17 days): 4.94 mg/g powder
- Stability of Vitamin Es in Powder Concentrate ([1]; 18 days): 4.77 mg/g powder
- Stability of Vitamin Es in Powder Concentrate ([1]; 19 days): 5.04 mg/g powder
- Stability of Vitamin Es in Powder Concentrate ([1]; 22 days): 4.94 mg/g powder
- Stability of Vitamin Es in Powder Concentrate ([1]; 23 days): 4.91 mg/g powder
- Stability of Vitamin Es in Powder Concentrate ([1]; 24 days): 5.00 mg/g powder
- Stability of Vitamin Es in Powder Concentrate ([1]; 25 days): 5.06 mg/g powder
- Stability of Vitamin Es in Powder Concentrate ([1]; 26 days): 4.84 mg/g powder
- Stability of Vitamin Es in Powder Concentrate ([1]; 29 days): 4.85 mg/g powder
- Stability of Vitamin Es in Powder Concentrate ([1]; 30 days): 4.83 mg/g powder
- Stability of Vitamin Es in Powder Concentrate ([1]; 60 days): 4.91 mg/g powder
- Stability of Vitamin Es in Powder Concentrate ([1]; 90 days): 4.96 mg/g powder
- Stability of Vitamin Es in Powder Concentrate ([1]; 120 days): 4.93 mg/g powder
- Stability of Vitamin Es in Powder Concentrate ([1]; 150 days): 4.69 mg/g powder
- Stability of Vitamin Es in Powder Concentrate ([1]; 180 days): 4.70 mg/g powder
- Stability of Vitamin Es in Powder Concentrate ([1]; 210 days): 4.84 mg/g powder
- Stability of Vitamin Es in Powder Concentrate ([1]; 240 days): 5.03 mg/g powder
- Stability of Vitamin Es in Powder Concentrate ([1]; 270 days): 4.78 mg/g powder
- Stability of Vitamin Es in Powder Concentrate ([1]; 300 days): 4.81 mg/g powder
- Stability of Vitamin Es in Powder Concentrate ([1]; 330 days): 4.81 mg/g powder
- Stability of Vitamin Es in Powder Concentrate ([1]; 360 days): 4.83 mg/g powder
- Stability of Vitamin Es in Powder Concentrate ([1]; 390 days): 4.91 mg/g powder
- Stability of Vitamin Es in Powder Concentrate ([1]; 420 days): 4.69 mg/g powder
- Stability of Vitamin Es in Powder Concentrate ([1]; 450 days): 5.00 mg/g powder
- Stability of Vitamin Es in Powder Concentrate ([1]; 480 days): 4.98 mg/g powder
- Stability of Vitamin Es in Powder Concentrate ([1]; 510 days): 5.02 mg/g powder
- Stability of Vitamin Es in Powder Concentrate ([1]; 540 days): 5.03 mg/g powder
- Stability of Vitamin Es in Powder Concentrate ([1]; 570 days): 4.72 mg/g powder
- Stability of Vitamin Es in AB White ([2]; stored at 8° C., 0 days): 26.1 µg/mL
- Stability of Vitamin Es in AB White ([2]; stored at 8° C., 1 days): 24.90 µg/mL
- Stability of Vitamin Es in AB White ([2]; stored at 8° C., 2 days): 23.46 µg/mL
- Stability of Vitamin Es in AB White ([2]; stored at 8° C., 3 days): 23.21 µg/mL
- Stability of Vitamin Es in AB White ([2]; stored at 8° C., 5 days): 23.39 µg/mL
- Stability of Vitamin Es in AB White ([2]; stored at 8° C., 8 days): 24.65 µg/mL
- Stability of Vitamin Es in AB White ([2]; stored at 8° C., 9 days): 24.42 µg/mL
- Stability of Vitamin Es in AB White ([2]; stored at 8° C., 10 days): 24.57 µg/mL
- Stability of Vitamin Es in AB White ([2]; stored at 8° C., 11 days): 25.45 µg/mL
- Stability of Vitamin Es in AB White ([2]; stored at 8° C., 12 days): 23.97 µg/mL
- Stability of Vitamin Es in AB White ([2]; stored at 8° C., 15 days): 25.48 µg/mL
- Stability of Vitamin Es in AB White ([2]; stored at 8° C., 16 days): 25.02 µg/mL
- Stability of Vitamin Es in AB White ([2]; stored at 8° C., 17 days): 24.17 µg/mL
- Stability of Vitamin Es in AB White ([2]; stored at 8° C., 18 days): 23.28 µg/mL
- Stability of Vitamin Es in AB White ([2]; stored at 8° C., 19 days): 24.12 µg/mL
- Stability of Vitamin Es in AB White ([2]; stored at 8° C., 22 days): 23.51 µg/mL
- Stability of Vitamin Es in AB White ([2]; stored at 8° C., 23 days): 24.27 µg/mL
- Stability of Vitamin Es in AB White ([2]; stored at 8° C., 24 days): 24.72 µg/mL
- Stability of Vitamin Es in AB White ([2]; stored at 8° C., 25 days): 25.28 µg/mL
- Stability of Vitamin Es in AB White ([2]; stored at 8° C., 26 days): 25.25 µg/mL
- Stability of Vitamin Es in AB White ([2]; stored at 8° C., 29 days): 24.87 µg/mL
- Stability of Vitamin Es in AB White ([2]; stored at 8° C., 30 days): 23.64 µg/mL
- Stability of Vitamin Es in AB White ([2]; stored at 8° C., 60 days): 22.96 µg/mL
- Stability of Vitamin Es in AB White ([2]; stored at 8° C., 90 days): 24.27 µg/mL
- Stability of Vitamin Es in AB White ([2]; stored at 8° C., 120 days): 23.01 µg/mL
- Stability of Vitamin Es in AB White ([2]; stored at 8° C., 150 days): 24.32 µg/mL
- Stability of Vitamin Es in AB White ([2]; stored at 8° C., 180 days): 24.54 µg/mL
- Stability of Vitamin Es in AB White ([2]; stored at 8° C., 210 days): 23.71 µg/mL
- Stability of Vitamin Es in AB White ([2]; stored at 8° C., 240 days): 22.68 µg/mL
- Stability of Vitamin Es in AB White ([2]; stored at 8° C., 270 days): 22.68 µg/mL
- Stability of Vitamin Es in AB White ([2]; stored at 8° C., 300 days): 22.76 µg/mL
- Stability of Vitamin Es in AB White ([2]; stored at 8° C., 330 days): 23.21 µg/mL
- Stability of Vitamin Es in AB White ([2]; stored at 8° C., 360 days): 22.25 µg/mL
- Stability of Vitamin Es in AB White ([2]; stored at 8° C., 390 days): 22.45 µg/mL
- Stability of Vitamin Es in AB White ([2]; stored at 8° C., 420 days): 22.35 µg/mL
- Stability of Vitamin Es in AB White ([2]; stored at 8° C., 450 days): 22.88 µg/mL
- Stability of Vitamin Es in AB White ([2]; stored at 8° C., 480 days): 22.05 µg/mL
- Stability of Vitamin Es in AB White ([2]; stored at 8° C., 510 days): 21.32 µg/mL
- Stability of Vitamin Es in AB White ([2]; stored at 8° C., 540 days): 21.72 µg/mL
- Stability of Vitamin Es in AB White ([2]; stored at 8° C., 570 days): 22.00 µg/mL
- Stability of Vitamin Es in AB White ([2]; stored at 21-25° C., 0 days): 26.1 µg/mL
- Stability of Vitamin Es in AB White ([2]; stored at 21-25° C., 1 days): 25.1 µg/mL
- Stability of Vitamin Es in AB White ([2]; stored at 21-25° C., 2 days): 25.5 µg/mL
- Stability of Vitamin Es in AB White ([2]; stored at 21-25° C., 3 days): 25.8 µg/mL
- Stability of Vitamin Es in AB White ([2]; stored at 21-25° C., 5 days): 25.4 µg/mL
- Stability of Vitamin Es in AB White ([2]; stored at 21-25° C., 8 days): 23.9 µg/mL
- Stability of Vitamin Es in AB White ([2]; stored at 21-25° C., 9 days): 25.3 µg/mL
- Stability of Vitamin Es in AB White ([2]; stored at 21-25° C., 10 days): 26.3 µg/mL
- Stability of Vitamin Es in AB White ([2]; stored at 21-25° C., 11 days): 26.0 µg/mL
- Stability of Vitamin Es in AB White ([2]; stored at 21-25° C., 12 days): 24.6 µg/mL
- Stability of Vitamin Es in AB White ([2]; stored at 21-25° C., 15 days): 23.9 µg/mL
- Stability of Vitamin Es in AB White ([2]; stored at 21-25° C., 16 days): 24.2 µg/mL
- Stability of Vitamin Es in AB White ([2]; stored at 21-25° C., 17 days): 26.2 µg/mL
- Stability of Vitamin Es in AB White ([2]; stored at 21-25° C., 18 days): 25.3 µg/mL
- Stability of Vitamin Es in AB White ([2]; stored at 21-25° C., 19 days): 23.8 µg/mL
- Stability of Vitamin Es in AB White ([2]; stored at 21-25° C., 22 days): 25.7 µg/mL
- Stability of Vitamin Es in AB White ([2]; stored at 21-25° C., 23 days): 23.8 µg/mL
- Stability of Vitamin Es in AB White ([2]; stored at 21-25° C., 24 days): 25.8 µg/mL
- Stability of Vitamin Es in AB White ([2]; stored at 21-25° C., 25 days): 25.0 µg/mL
- Stability of Vitamin Es in AB White ([2]; stored at 21-25° C., 26 days): 24.8 µg/mL
- Stability of Vitamin Es in AB White ([2]; stored at 21-25° C., 29 days): 26.1 µg/mL
- Stability of Vitamin Es in AB White ([2]; stored at 21-25° C., 30 days): 23.9 µg/mL
- Stability of Vitamin Es in AB White ([2]; stored at 21-25° C., 60 days): 25.0 µg/mL
- Stability of Vitamin Es in AB White ([2]; stored at 21-25° C., 90 days): 23.7 µg/mL
- Stability of Vitamin Es in AB White ([2]; stored at 21-25° C., 120 days): 24.7 µg/mL
- Stability of Vitamin Es in AB White ([2]; stored at 21-25° C., 150 days): 24.4 µg/mL
- Stability of Vitamin Es in AB White ([2]; stored at 21-25° C., 180 days): 23.6 µg/mL
- Stability of Vitamin Es in AB White ([2]; stored at 21-25° C., 210 days): 23.1 µg/mL
- Stability of Vitamin Es in AB White ([2]; stored at 21-25° C., 240 days): 24.2 µg/mL
- Stability of Vitamin Es in AB White ([2]; stored at 21-25° C., 270 days): 23.1 µg/mL
- Stability of Vitamin Es in AB White ([2]; stored at 21-25° C., 300 days): 24.2 µg/mL
- Stability of Vitamin Es in AB White ([2]; stored at 21-25° C., 330 days): 24.4 µg/mL
- Stability of Vitamin Es in AB White ([2]; stored at 21-25° C., 360 days): 23.6 µg/mL
- Stability of Vitamin Es in AB White ([2]; stored at 21-25° C., 390 days): 23.1 µg/mL
- Stability of Vitamin Es in AB White ([2]; stored at 21-25° C., 420 days): 22.8 µg/mL
- Stability of Vitamin Es in AB White ([2]; stored at 21-25° C., 450 days): 23.4 µg/mL
- Stability of Vitamin Es in AB White ([2]; stored at 21-25° C., 480 days): 21.6 µg/mL
- Stability of Vitamin Es in AB White ([2]; stored at 21-25° C., 510 days): 21.9 µg/mL
- Stability of Vitamin Es in AB White ([2]; stored at 21-25° C., 540 days): 22.0 µg/mL
- Stability of Vitamin Es in AB White ([2]; stored at 21-25° C., 570 days): 22.2 µg/mL
